Data from patent US10221163B2 (priority 2015, dated 2019).
Read-outs that look alike come from different tables or passages of the source.

Key:
[1] = tested on: Serratia marcescens expressing IMP-1 (CL5741); type: cell-based; conditions: with imipenem 1 μg/ml; 95% inhibition of bacterial growth
In short: (§1)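 Colonies grown overnight on blood agar at 35° C were suspended in saline, diluted 1:100 into 1.1×CAMHB and dispensed. Imipenem was added to 1 μg/ml, then test compound. After 22 hours to 24 hours at 35° C, absorbance was recorded.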

[2] = tested on: Klebsiella pneumoniae expressing VIM-1 (IHMA599644); type: cell-based; conditions: with imipenem 1 μg/ml; 95% inhibition of bacterial growth
In short: as §1

[3] = tested on: Escherichia coli expressing NDM-1 (CLB30005, CLB30016); type: cell-based; conditions: with imipenem 1 μg/ml; 95% inhibition of bacterial growth
In short: as §1

[4] = tested on: Pseudomonas aeruginosa efflux− (MB9799), IMP-1; type: cell-based; conditions: concentration restoring susceptibility to imipenem at 2 μg/mL in the presence of a class A, C, D serine β-lactamase inhibitor closely related to relebactam
In short: (§2)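 Microbroth MIC tests in PAO1-background strains with fixed imipenem and/or ceftazidime, usually at the CLSI breakpoint, plus fixed class A/C β-lactamase inhibitor against AmpC. MBL inhibitor titrated; concentration restoring susceptibility recorded and compared as fold difference between efflux+ MB9798 and efflux− MB9799.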

[5] = target: IMP-1 (Serratia marcescens, UniProt P52699); experiment: biochemical; type: biochemical; conditions: fluorescence assay, CCF2-FA substrate, 2 pM enzyme, 2 hours at 25° C.; read-out: IMP-1 IC50
IMP-1, sequence (P52699 whole entry, looked up, species assumed): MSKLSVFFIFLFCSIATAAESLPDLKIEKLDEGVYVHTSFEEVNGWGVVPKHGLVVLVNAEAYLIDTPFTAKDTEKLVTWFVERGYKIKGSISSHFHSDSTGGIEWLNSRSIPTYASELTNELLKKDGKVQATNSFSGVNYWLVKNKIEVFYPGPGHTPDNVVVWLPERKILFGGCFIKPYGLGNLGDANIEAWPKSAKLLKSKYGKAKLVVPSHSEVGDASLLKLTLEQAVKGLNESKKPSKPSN
In short: (§3)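 Two-hour, 25° C incubation of enzyme with inhibitor and CCF2-FA (7-hydroxycoumarin–cephalosporin–fluorescein). Fluorescence read-out; IC50 via 4-parameter fit.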

[6] = target: NDM-1 (Klebsiella pneumoniae, UniProt C7C422); experiment: biochemical; type: biochemical; conditions: fluorescence assay, CCF2-FA substrate, 1 pM enzyme, 2 hours at 25° C.; read-out: NDM-1 IC50
NDM-1, sequence (C7C422 whole entry, looked up, species assumed): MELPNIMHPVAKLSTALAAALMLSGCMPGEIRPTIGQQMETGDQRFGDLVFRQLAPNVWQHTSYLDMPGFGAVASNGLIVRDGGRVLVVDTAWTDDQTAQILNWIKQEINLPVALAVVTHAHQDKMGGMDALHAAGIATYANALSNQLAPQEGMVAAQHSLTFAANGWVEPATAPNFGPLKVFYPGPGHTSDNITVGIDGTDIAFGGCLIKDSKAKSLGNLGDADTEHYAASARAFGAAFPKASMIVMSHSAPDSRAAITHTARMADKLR
In short: as §3

[7] = target: VIM-1 (Pseudomonas aeruginosa (strain ATCC 15692 / DSM 22644 / CIP 104116 / JCM 14847 / LMG 12228 / 1C / PRS 101 / PAO1), UniProt A0A0F7KYQ8); experiment: biochemical; conditions: CCF2-FA substrate, 30 pM enzyme, 2 hours at 25° C.
In short: as §3

[8] = tested on: Pseudomonas aeruginosa efflux+ (MB9798), IMP-1; type: cell-based; conditions: concentration restoring susceptibility to imipenem at 2 μg/mL in the presence of a class A, C, D serine β-lactamase inhibitor closely related to relebactam
In short: as §2

[9] = tested on: Pseudomonas aeruginosa MB9798 vs MB9799; conditions: ratio MITC95 PA_9798/MITC95 PA_9799
In short: as §2

[10] = fluorescence assay, read-out: VIM-1 IC50

## C[C@H](CN)NS(=O)(=O)c1ccc(-c2cccc3[nH]c(N)nc23)c(-c2nn[nH]n2)c1S(N)(=O)=O [Example 187, 4-(2-amino-1H-benzo[d]imidazol-4-yl)-N^1—((R)-1-aminopropan-2-yl)-3-(2H-tetrazol-5-yl)benzene-1,2-disulfonamide]
[1]
  Serratia marcescens expressing IMP-1 (CL5741) MITC95: 0.7813 µM
[2]
  Klebsiella pneumoniae expressing VIM-1 (IHMA599644) MITC95: 1.172 µM
[3]
  Escherichia coli expressing NDM-1 (CLB30016) MITC95: 0.5859 µM
[4]
  P. aeruginosa expressing IMP-1, efflux − (MB9799) MITC95: 0.7813 µM
[5]
  IC50: 0.23 nM
[6]
  IC50: 0.0212 nM
[7]; VIM-1 IC50, fluorescence assay
  IC50: 0.0982 nM
[8]
  P. aeruginosa expressing IMP-1, efflux + (MB9798) MITC95: 0.3906 µM
[9]
  Efflux ratio: 0.50

## NC(=O)[C@H](N)CNS(=O)(=O)c1ccc(-c2cccc3[nH]c(N)nc23)c(-c2nn[nH]n2)c1S(N)(=O)=O [Example 188, (2R)-2-amino-3-(4-(2-amino-1H-benzo[d]imidazol-4-yl)-2-sulfamoyl-3-(2H-tetrazol-5-yl)phenylsulfonamido)propanamide]
[1]
  Serratia marcescens expressing IMP-1 (CL5741) MITC95: 1.563 µM
[2]
  Klebsiella pneumoniae expressing VIM-1 (IHMA599644) MITC95: 3.125 µM
[3]
  Escherichia coli expressing NDM-1 (CLB30016) MITC95: 1.563 µM
[4]
  P. aeruginosa expressing IMP-1, efflux − (MB9799) MITC95: 1.563 µM
[5]
  IC50: 0.613 nM
[6]
  IC50: 0.0756 nM
[7]; [10]
  IC50: 0.213 nM
[8]
  P. aeruginosa expressing IMP-1, efflux + (MB9798) MITC95: 0.7813 µM
[9]
  Efflux ratio: 0.50

## NC(=O)[C@@H](N)CNS(=O)(=O)c1ccc(-c2cccc3[nH]c(N)nc23)c(-c2nn[nH]n2)c1S(N)(=O)=O [Example 189, (2S)-2-amino-3-(4-(2-amino-1H-benzo[d]imidazol-4-yl)-2-sulfamoyl-3-(2H-tetrazol-5-yl)phenylsulfonamido)propanamide]
[1]
  Serratia marcescens expressing IMP-1 (CL5741) MITC95: 1.563 µM
[2]
  Klebsiella pneumoniae expressing VIM-1 (IHMA599644) MITC95: 3.125 µM
[3]
  Escherichia coli expressing NDM-1 (CLB30016) MITC95: 0.7813 µM
[4]
  P. aeruginosa expressing IMP-1, efflux − (MB9799) MITC95: 1.563 µM
[5]
  IC50: 0.615 nM
[6]
  IC50: 0.0718 nM
[7]; [10]
  IC50: 0.216 nM
[8]
  P. aeruginosa expressing IMP-1, efflux + (MB9798) MITC95: 0.7813 µM
[9]
  Efflux ratio: 0.50

## Nc1nc2c(-c3ccc(S(=O)(=O)NC[C@@H](N)CO)c(S(N)(=O)=O)c3-c3nn[nH]n3)cccc2[nH]1 [Example 190, 4-(2-amino-1H-benzo[d]imidazol-4-yl)-N1-((R)-2-amino-3-hydroxypropyl)-3-(2H-tetrazol-5-yl)benzene-1,2-disulfonamide]
[1]
  Serratia marcescens expressing IMP-1 (CL5741) MITC95: 0.3906 µM
[2]
  Klebsiella pneumoniae expressing VIM-1 (IHMA599644) MITC95: 0.7813 µM
[3]
  Escherichia coli expressing NDM-1 (CLB30016) MITC95: 0.3906 µM
[4]
  P. aeruginosa expressing IMP-1, efflux − (MB9799) MITC95: 0.7813 µM
[5]
  IC50: 0.624 nM
[6]
  IC50: 0.059 nM
[7]; [10]
  IC50: 0.281 nM
[8]
  P. aeruginosa expressing IMP-1, efflux + (MB9798) MITC95: 0.3906 µM
[9]
  Efflux ratio: 0.50

## Nc1nc2c(-c3ccc(S(=O)(=O)NC[C@H](N)CO)c(S(N)(=O)=O)c3-c3nn[nH]n3)cccc2[nH]1 [Example 191, 4-(2-amino-1H-benzo[d]imidazol-4-yl)-N^1—((S)-2-amino-3-hydroxypropyl)-3-(2H-tetrazol-5-yl)benzene-1,2-disulfonamide]
[1]
  Serratia marcescens expressing IMP-1 (CL5741) MITC95: 0.8906 µM
[2]
  Klebsiella pneumoniae expressing VIM-1 (IHMA599644) MITC95: 0.8906 µM
[3]
  Escherichia coli expressing NDM-1 (CLB30016) MITC95: 0.25 µM
[4]
  P. aeruginosa expressing IMP-1, efflux − (MB9799) MITC95: 0.4453 µM
[5]
  IC50: 0.433 nM
[6]
  IC50: 0.0469 nM
[7]; [10]
  IC50: 0.173 nM
[8]
  P. aeruginosa expressing IMP-1, efflux + (MB9798) MITC95: 0.4453 µM
[9]
  Efflux ratio: 1.00

## NS(=O)(=O)c1c(S(=O)(=O)N[C@@H]2CCNC2)ccc(-c2cccc3[nH]cnc23)c1-c1nn[nH]n1 [Example 193, 4-(1H-benzo[d]imidazol-4-yl)-N1-((R)-pyrrolidin-3-yl)-3-(2H-tetrazol-5-yl)benzene-1,2-disulfonamide]
[1]
  Serratia marcescens expressing IMP-1 (CL5741) MITC95: 1.563 µM
[2]
  Klebsiella pneumoniae expressing VIM-1 (IHMA599644) MITC95: 2.344 µM
[3]
  Escherichia coli expressing NDM-1 (CLB30016) MITC95: 1.563 µM
[4]
  P. aeruginosa expressing IMP-1, efflux − (MB9799) MITC95: 0.7813 µM
[5]
  IC50: 0.211 nM
[6]
  IC50: 0.0392 nM
[7]; [10]
  IC50: 0.113 nM
[8]
  P. aeruginosa expressing IMP-1, efflux + (MB9798) MITC95: 0.7813 µM
[9]
  Efflux ratio: 1.00

## Nc1ccc(-c2ccc(S(=O)(=O)N[C@@H]3CCNC3)c(S(N)(=O)=O)c2-c2nn[nH]n2)cn1 [Example 194, (R)-4-(6-aminopyridin-3-yl)-N^1-(pyrrolidin-3-yl)-3-(2H-tetrazol-5-yl)benzene-1,2-disulfonamide]
[1]
  Serratia marcescens expressing IMP-1 (CL5741) MITC95: 0.5573 µM
[2]
  Klebsiella pneumoniae expressing VIM-1 (IHMA599644) MITC95: 2.229 µM
[3]
  Escherichia coli expressing NDM-1 (CLB30016) MITC95: 0.3203 µM
[4]
  P. aeruginosa expressing IMP-1, efflux − (MB9799) MITC95: 0.8542 µM
[5]
  IC50: 0.242 nM
[6]
  IC50: 0.105 nM
[7]; [10]
  IC50: 0.123 nM
[8]
  P. aeruginosa expressing IMP-1, efflux + (MB9798) MITC95: 0.6875 µM
[9]
  Efflux ratio: 0.80

## Nc1ccc(-c2ccc(S(=O)(=O)N[C@H]3CCNC3)c(S(N)(=O)=O)c2-c2nn[nH]n2)cn1 [Example 195, (S)-4-(6-aminopyridin-3-yl)-N^1-(pyrrolidin-3-yl)-3-(2H-tetrazol-5-yl)benzene-1,2-disulfonamide]
[1]
  Serratia marcescens expressing IMP-1 (CL5741) MITC95: 0.5859 µM
[2]
  Klebsiella pneumoniae expressing VIM-1 (IHMA599644) MITC95: 1.563 µM
[3]
  Escherichia coli expressing NDM-1 (CLB30016) MITC95: 0.5859 µM
[4]
  P. aeruginosa expressing IMP-1, efflux − (MB9799) MITC95: 0.7813 µM
[5]
  IC50: 0.523 nM
[6]
  IC50: 0.169 nM
[7]; [10]
  IC50: 0.182 nM
[8]
  P. aeruginosa expressing IMP-1, efflux + (MB9798) MITC95: 0.7813 µM
[9]
  Efflux ratio: 1.00

## NCCNS(=O)(=O)c1ccc(-c2ccc(N)nc2)c(-c2nn[nH]n2)c1S(N)(=O)=O [Example 196, N^1-(2-aminoethyl)-4-(6-aminopyridin-3-yl)-3-(2H-tetrazol-5-yl)benzene-1,2-disulfonamide]
[1]
  Serratia marcescens expressing IMP-1 (CL5741) MITC95: 0.2969 µM
[2]
  Klebsiella pneumoniae expressing VIM-1 (IHMA599644) MITC95: 1.336 µM
[3]
  Escherichia coli expressing NDM-1 (CLB30016) MITC95: 0.03125 µM
[4]
  P. aeruginosa expressing IMP-1, efflux − (MB9799) MITC95: 0.7656 µM
[5]
  IC50: 0.479 nM
[6]
  IC50: 0.328 nM
[7]; [10]
  IC50: 0.218 nM
[8]
  P. aeruginosa expressing IMP-1, efflux + (MB9798) MITC95: 0.7656 µM
[9]
  Efflux ratio: 1.00

## NS(=O)(=O)c1c(S(=O)(=O)N[C@H]2CCNC2)ccc(-c2cccc3[nH]cnc23)c1-c1nn[nH]n1 [Example 197]
[1]
  Serratia marcescens expressing IMP-1 (CL5741) MITC95: 1.172 µM
[2]
  Klebsiella pneumoniae expressing VIM-1 (IHMA599644) MITC95: 3.125 µM
[3]
  Escherichia coli expressing NDM-1 (CLB30016) MITC95: 2.344 µM
[4]
  P. aeruginosa expressing IMP-1, efflux − (MB9799) MITC95: 0.7813 µM
[5]
  IC50: 0.395 nM
[6]
  IC50: 0.0764 nM
[7]; [10]
  IC50: 0.145 nM
[8]
  P. aeruginosa expressing IMP-1, efflux + (MB9798) MITC95: 0.7813 µM
[9]
  Efflux ratio: 1.00

## NCCCNS(=O)(=O)c1ccc(-c2cccc3[nH]cnc23)c(-c2nn[nH]n2)c1S(N)(=O)=O [Example 198, N^1-(3-aminopropyl)-4-(1H-benzo[d]imidazol-4-yl)-3-(2H-tetrazol-5-yl)benzene-1,2-disulfonamide]
[1]
  Serratia marcescens expressing IMP-1 (CL5741) MITC95: 1.172 µM
[2]
  Klebsiella pneumoniae expressing VIM-1 (IHMA599644) MITC95: 2.344 µM
[3]
  Escherichia coli expressing NDM-1 (CLB30016) MITC95: 1.172 µM
[4]
  P. aeruginosa expressing IMP-1, efflux − (MB9799) MITC95: 0.7813 µM
[5]
  IC50: 0.293 nM
[6]
  IC50: 0.0592 nM
[7]; [10]
  IC50: 0.135 nM
[8]
  P. aeruginosa expressing IMP-1, efflux + (MB9798) MITC95: 0.7813 µM
[9]
  Efflux ratio: 1.00

## NCCNS(=O)(=O)c1ccc(-c2cccc3[nH]cnc23)c(-c2nn[nH]n2)c1S(N)(=O)=O [Example 199, N^1-(2-aminoethyl)-4-(1H-benzo[d]imidazol-4-yl)-3-(2H-tetrazol-5-yl)benzene-1,2-disulfonamide]
[1]
  Serratia marcescens expressing IMP-1 (CL5741) MITC95: 1.042 µM
[2]
  Klebsiella pneumoniae expressing VIM-1 (IHMA599644) MITC95: 2.865 µM
[3]
  Escherichia coli expressing NDM-1 (CLB30016) MITC95: 1.042 µM
[4]
  P. aeruginosa expressing IMP-1, efflux − (MB9799) MITC95: 1.432 µM
[5]
  IC50: 0.102 nM
[6]
  IC50: 0.0257 nM
[7]; [10]
  IC50: 0.0471 nM
[8]
  P. aeruginosa expressing IMP-1, efflux + (MB9798) MITC95: 0.7813 µM
[9]
  Efflux ratio: 0.55
